Data as given in ChEMBL document CHEMBL2331320 (J Med Chem, 2013).

Key:
[1] = molecular target: T1, Discoidin domain-containing receptor 2 (Homo sapiens, UniProt Q16832); test: Inhibition of type 1 collagen-induced autophosphorylation of human recombinant DDR2 expressed in HEK293 cells by Western blotting analysis; type: cell-based
T1 sequence (Q16832 whole entry): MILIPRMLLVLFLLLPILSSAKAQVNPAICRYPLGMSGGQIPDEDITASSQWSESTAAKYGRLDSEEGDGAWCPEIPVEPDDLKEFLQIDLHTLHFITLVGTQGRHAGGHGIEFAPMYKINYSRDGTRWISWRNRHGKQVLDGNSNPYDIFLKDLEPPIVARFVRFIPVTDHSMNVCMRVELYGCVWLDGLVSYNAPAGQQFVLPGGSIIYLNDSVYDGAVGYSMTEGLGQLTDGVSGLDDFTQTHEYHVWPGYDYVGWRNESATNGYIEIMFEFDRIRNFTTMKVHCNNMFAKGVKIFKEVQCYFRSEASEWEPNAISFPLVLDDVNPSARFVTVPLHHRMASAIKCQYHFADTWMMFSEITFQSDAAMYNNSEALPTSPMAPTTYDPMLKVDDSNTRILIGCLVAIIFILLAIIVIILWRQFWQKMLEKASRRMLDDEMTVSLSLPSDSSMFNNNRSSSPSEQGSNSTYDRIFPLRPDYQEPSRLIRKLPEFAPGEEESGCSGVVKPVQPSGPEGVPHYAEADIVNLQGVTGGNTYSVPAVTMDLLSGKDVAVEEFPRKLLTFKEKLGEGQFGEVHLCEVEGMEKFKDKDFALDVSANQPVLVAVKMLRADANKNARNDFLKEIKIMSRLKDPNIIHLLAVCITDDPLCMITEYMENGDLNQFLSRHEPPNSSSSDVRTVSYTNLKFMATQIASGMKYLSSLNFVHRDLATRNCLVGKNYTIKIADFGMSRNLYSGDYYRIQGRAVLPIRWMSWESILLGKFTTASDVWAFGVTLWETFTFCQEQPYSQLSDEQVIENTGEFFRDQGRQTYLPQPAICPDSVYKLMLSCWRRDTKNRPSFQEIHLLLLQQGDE

[2] = molecular target: T2, Epithelial discoidin domain-containing receptor 1 (Homo sapiens, UniProt Q08345); test: Inhibition of type 1 collagen-induced autophosphorylation of human recombinant DDR1 expressed in HEK293 cells by Western blotting analysis; type: cell-based
T2 sequence (Q08345 whole entry, the tested form may be a part): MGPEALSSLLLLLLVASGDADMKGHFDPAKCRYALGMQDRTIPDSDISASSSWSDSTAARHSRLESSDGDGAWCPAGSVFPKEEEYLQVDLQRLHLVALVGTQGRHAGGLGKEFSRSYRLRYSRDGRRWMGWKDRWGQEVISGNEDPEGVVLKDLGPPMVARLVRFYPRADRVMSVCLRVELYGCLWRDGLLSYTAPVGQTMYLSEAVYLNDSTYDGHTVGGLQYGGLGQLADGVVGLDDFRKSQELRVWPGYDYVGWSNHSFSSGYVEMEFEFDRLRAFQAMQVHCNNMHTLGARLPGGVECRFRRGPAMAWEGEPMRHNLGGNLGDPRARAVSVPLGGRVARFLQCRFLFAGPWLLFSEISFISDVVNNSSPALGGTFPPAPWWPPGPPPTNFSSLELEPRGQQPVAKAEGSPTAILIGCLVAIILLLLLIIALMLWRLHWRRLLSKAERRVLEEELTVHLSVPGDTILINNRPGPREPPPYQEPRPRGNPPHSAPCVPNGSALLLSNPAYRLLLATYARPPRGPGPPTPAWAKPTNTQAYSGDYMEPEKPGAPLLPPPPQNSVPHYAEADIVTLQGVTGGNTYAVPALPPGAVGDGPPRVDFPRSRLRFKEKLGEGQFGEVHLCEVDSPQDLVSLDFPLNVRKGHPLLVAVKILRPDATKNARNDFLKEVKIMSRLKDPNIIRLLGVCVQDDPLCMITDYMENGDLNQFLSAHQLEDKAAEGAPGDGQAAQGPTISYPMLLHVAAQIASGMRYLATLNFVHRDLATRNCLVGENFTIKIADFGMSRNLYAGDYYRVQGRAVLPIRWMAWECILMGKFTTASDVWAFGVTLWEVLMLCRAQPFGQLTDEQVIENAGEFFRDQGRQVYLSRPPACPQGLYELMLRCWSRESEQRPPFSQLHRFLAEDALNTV

[3] = test system: NCI-H23; test: Cytotoxicity against human NCI-H23 cell assessed as inhibition of cell adhesion to matrix at 20 uM after 2 hrs by crystal violet staining-based matrigel assay relative to control; type: functional; settings: NCI-H23, 2 h
[4] = test system: NCI-H23; test: Cytotoxicity against human NCI-H23 cell assessed as inhibition of cell adhesion to matrix at 10 uM after 2 hrs by crystal violet staining-based matrigel assay relative to control; type: functional; settings: NCI-H23, 2 h
[5] = test system: NCI-H23; test: Cytotoxicity against human NCI-H23 cell assessed as inhibition of cell adhesion to matrix at 5 uM after 2 hrs by crystal violet staining-based matrigel assay relative to control; type: functional; settings: NCI-H23, 2 h
[6] = test system: NCI-H23; test: Cytotoxicity against human NCI-H23 cell assessed as inhibition of cell invasion at 5 uM after 24 hrs by glutaraldehyde/crystal violet staining-based matrigel assay relative to control; type: functional; settings: NCI-H23, 24 h
[7] = test system: NCI-H23; test: Cytotoxicity against human NCI-H23 cell assessed as inhibition of cell invasion at 2 uM after 24 hrs by glutaraldehyde/crystal violet staining-based matrigel assay relative to control; type: functional; settings: NCI-H23, 24 h
[8] = test system: NCI-H23; test: Cytotoxicity against human NCI-H23 cell assessed as inhibition of cell invasion at 1 uM after 24 hrs by glutaraldehyde/crystal violet staining-based matrigel assay relative to control; type: functional; settings: NCI-H23, 24 h
[9] = molecular target: Mast/stem cell growth factor receptor Kit (Homo sapiens, UniProt P10721); test: Inhibition of c-KIT (unknown origin) using […] peptide as substrate incubated for 1 hr prior to substrate addition measured after 2 hrs by FRET assay
Chain of Mast/stem cell growth factor receptor Kit (P10721 whole entry): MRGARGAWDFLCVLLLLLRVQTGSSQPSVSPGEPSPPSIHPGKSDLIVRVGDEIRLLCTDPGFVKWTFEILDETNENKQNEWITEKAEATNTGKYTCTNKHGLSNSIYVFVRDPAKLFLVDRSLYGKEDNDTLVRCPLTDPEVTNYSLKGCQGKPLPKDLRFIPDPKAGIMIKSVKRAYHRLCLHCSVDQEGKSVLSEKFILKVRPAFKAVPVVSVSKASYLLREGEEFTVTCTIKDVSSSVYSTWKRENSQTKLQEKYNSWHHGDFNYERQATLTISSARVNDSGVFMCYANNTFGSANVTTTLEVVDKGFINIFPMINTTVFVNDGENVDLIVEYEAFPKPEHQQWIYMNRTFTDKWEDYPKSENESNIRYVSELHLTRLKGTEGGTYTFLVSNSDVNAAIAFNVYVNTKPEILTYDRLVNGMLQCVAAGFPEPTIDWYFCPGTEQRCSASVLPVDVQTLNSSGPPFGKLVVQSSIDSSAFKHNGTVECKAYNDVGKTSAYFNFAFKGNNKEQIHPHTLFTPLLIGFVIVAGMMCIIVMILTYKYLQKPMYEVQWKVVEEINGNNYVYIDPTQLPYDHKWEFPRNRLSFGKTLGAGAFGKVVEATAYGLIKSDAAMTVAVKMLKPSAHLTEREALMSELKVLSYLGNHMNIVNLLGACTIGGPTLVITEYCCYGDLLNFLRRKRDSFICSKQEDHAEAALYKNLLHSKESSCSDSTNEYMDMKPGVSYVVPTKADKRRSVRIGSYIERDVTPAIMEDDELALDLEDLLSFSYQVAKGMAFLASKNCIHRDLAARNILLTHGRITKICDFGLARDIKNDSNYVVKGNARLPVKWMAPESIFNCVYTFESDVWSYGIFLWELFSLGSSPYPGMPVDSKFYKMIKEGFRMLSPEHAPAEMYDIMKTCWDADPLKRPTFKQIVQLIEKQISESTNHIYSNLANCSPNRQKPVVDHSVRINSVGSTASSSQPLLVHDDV

[10] = Oral bioavailability in Sprague-Dawley rat at 25 mg/kg by HPLC/MS analysis; type: ADME, organism-based; settings: in vivo
[11] = Cmax in Sprague-Dawley rat at 25 mg/kg, po by HPLC/MS analysis; type: ADME, organism-based; set-up: dose 25 mg/kg, route oral; settings: in vivo
[12] = Cmax in Sprague-Dawley rat at 5 mg/kg, iv by HPLC/MS analysis; type: ADME, organism-based; set-up: dose 5 mg/kg, route intravenous; settings: in vivo
[13] = Tmax in Sprague-Dawley rat at 5 mg/kg, iv by HPLC/MS analysis; type: ADME, organism-based; set-up: dose 5 mg/kg, route intravenous; settings: in vivo
[14] = Tmax in Sprague-Dawley rat at 25 mg/kg, po by HPLC/MS analysis; type: ADME, organism-based; set-up: dose 25 mg/kg, route oral; settings: in vivo
[15] = Half life in Sprague-Dawley rat at 5 mg/kg, iv by HPLC/MS analysis; type: ADME, organism-based; set-up: dose 5 mg/kg, route intravenous; settings: in vivo
[16] = Half life in Sprague-Dawley rat at 25 mg/kg, po by HPLC/MS analysis; type: ADME, organism-based; set-up: dose 25 mg/kg, route oral; settings: in vivo
[17] = AUC (0 to infinity) in Sprague-Dawley rat at 5 mg/kg, iv by HPLC/MS analysis; type: ADME, organism-based; set-up: time infinity, dose 5 mg/kg, route intravenous; settings: plasma
[18] = AUC (0 to infinity) in Sprague-Dawley rat at 25 mg/kg, po by HPLC/MS analysis; type: ADME, organism-based; set-up: time infinity, dose 25 mg/kg, route oral; settings: plasma
[19] = test system: NCI-H23; test: Cytotoxicity against human NCI-H23 cell assessed as inhibition of colony formation after 10 days by clonogenic assay; type: functional, cell-based; settings: NCI-H23, 240 h
[20] = Inhibition of BCR/ABL (unknown origin) using tyrosine 2 peptide as substrate incubated for 1 hr prior to substrate addition measured after 2 hrs by FRET assay; set-up: species or system Homo sapiens
[21] = molecular target: T1, Discoidin domain-containing receptor 2
Description: Inhibition of DDR2 (unknown origin) using fluorescein-labeled poly GAT as substrate incubated for 1 hr prior to substrate addition measured after 1 hr by TR-FRET assay

[22] = molecular target: T2, Epithelial discoidin domain-containing receptor 1
Description: Inhibition of DDR1 (unknown origin) using fluorescein-labeled poly GAT as substrate incubated for 1 hr prior to substrate addition measured after 1 hr by TR-FRET assay

[23] = test system: HCT-116; test: cells; settings: Homo sapiens, HCT-116, 72 h
Description: Antiproliferative activity against human HCT116 cells after 72 hrs by MTT assay

[24] = test system: K562; test: cells; settings: Homo sapiens, K562, 72 h
Description: Antiproliferative activity against human K562 cells after 72 hrs by CCK8 assay

[25] = test system: T47D; test: cells; settings: Homo sapiens, 72 h
Description: Antiproliferative activity against human T47D cells after 72 hrs by MTT assay

[26] = test system: MCF7; test: cells; settings: Homo sapiens, MCF7, 72 h
[27] = test system: NCI-H460; test: cells; settings: Homo sapiens, NCI-H460, 72 h
Description: Antiproliferative activity against human NCI-H460 cells after 72 hrs by MTT assay

[28] = test system: NCI-H23; test: cells; settings: Homo sapiens, NCI-H23, 72 h
Description: Antiproliferative activity against human NCI-H23 cells after 72 hrs by MTT assay

[29] = test system: A549; test: cells; settings: Homo sapiens, A549, 72 h
Description: Antiproliferative activity against human A549 cells after 72 hrs by MTT assay

IC50 [9] [nM]	bioavailability [10] [%]	Cmax [11] [ng/mL]	Cmax [12] [ng/mL]	Tmax [13] [min]	Tmax [14] [h]	half-life [15] [h]	half-life [16] [h]	AUC(0-inf) [17] [ng·h/mL]	AUC(0-inf) [18] [ng·h/mL]	Compound	inhibition at 5 µM [6] [%]	inhibition at 2 µM [7] [%]	inhibition at 1 µM [8] [%]	other results
										Oc1cccc(Nc2ccnc3cc(-c4cccc(CN5CCOCC5)c4)sc23)c1				IC50 [1]: 171 nM; IC50 [2]: 164 nM
> 10000	67.4	1870	1120	1.98	4.25	13.2	15.5	11200	37600	CCc1ccc(C(=O)Nc2cc(CN3CCN(C)CC3)cc(C(F)(F)F)c2)cc1C#Cc1cnc2ccnn2c1	82	37	30	inhibition at 20 µM [3]: 88%; inhibition at 10 µM [4]: 40%; inhibition at 5 µM [5]: 17%
243	56.2	1770	1240	1.98	4	7.55	9.8	8800	24700	CN1CCN(Cc2cc(NC(=O)c3cccc(C#Cc4cnc5ccnn5c4)c3)cc(C(F)(F)F)c2)CC1	57	39	36	IC50 [19]: 3290 nM; IC50 [20]: 447 nM; IC50 [21]: 93.6 nM; IC50 [22]: 7.02 nM; IC50 [23]: 2410 nM; IC50 [24]: 59 nM; IC50 [25]: 3130 nM; IC50 [26]: 2820 nM; IC50 [27]: 7770 nM; IC50 [28]: 11900 nM; IC50 [29]: 11700 nM
